From publication PMC8231504, “A Biophysical Insight of Camptothecin Biodistribution: Towards a Molecular Understanding of Its Pharmacokinetic Issues” (Pharmaceutics, 2021)
Like-named read-outs stand apart in the source and are kept apart here.

Key:
[1] = Distribution coefficient in membrane/aqueous system, normal cell membrane model; type: physicochemical; conditions: for LogD: normal cells membranes (DOPC, DOPE, DOPS, CHOL, SM)
Excerpt: (§1) Single-lipid liposomal membrane models composed of DMPC, or lipid mixture liposomal membrane models mimetic of breast cancer cell membrane—DOPC (25%), CHOL (15%), EPC (31.8%), DOPS (17%), DOPE (8%), cardiolipin (2.5%) and SM (0.7%)—mimetic of cell membrane—[…], DOPE (20%), DOPS (20%), CHOL (10%), and SM (10%)—and, blood–brain barrier (BBB) membrane constituted by the BPL—phosphocholine (PC) (12.6%), phosphatidyl ethanolamine (PE) (33.1%), PI (4.1%), phosphatidyl serine (PS) (18.5%), and PA (0.8%) were prepared by the classical thin film hydration method. Briefly, lipids were co-dissolved in chloroform:methanol (8:2, v/v) and the solvents were evaporated under a stream of nitrogen in a rotary evaporator (Buchi R-200; Sigma-Aldrich Corp., Buchs, Switzerland). The resultant dried lipid film was hydrated with buffer at temperature of 40 ± 0.1 °C and lipid colloidal dispersions were formed by alternating vortex and thermostatic bath (40 ± 0.1 °C). […]
(§2) The distribution coefficient (LogD) of CPT between membrane and aqueous buffered solution (pH 5.8 for breast cancer cell membrane model and pH 7.4 for cell membrane model and BBB membrane model) was determined by fluorescence spectroscopy and derivative UV-Vis spectroscopy. […] The samples contained a fixed concentration of CPT (2 × 10^−5M) and increasing concentrations of lipid suspension (0 to 1 × 10^−3 M for absorbance or 3 × 10^−3 M for fluorescence). […] The fluorescence spectra were also measured on a Perkin-Elmer LS-50B spectrofluorimeter. The emission spectra were obtained in 380–480 nm range with λexcitation = 250 nm and the excitation spectra were recorded in 220–400 nm range with λemission = 430 nm. […] The second and third derivative spectra of the absorbance UV-Vis spectra were determined to improve the resolution of spectral bands and to eliminate the spectral interferences due to light scattered by the lipid suspensions. […]
(§3) Because CPT is a fluorescent compound with spectral variations due to its distribution between the lipid/aqueous phases (e.g., λ shifts), logD of CPT can also be calculated using fluorescence spectroscopy. […]

[2] = fluorescence spectroscopy, ref [18],[47],[48] (table), [18],[49],[50]; cited from earlier work
[3] = set-up: method as in PMID 22520977; conditions: after 2 h in contact with human blood; ref [3]; cited from earlier work
[4] = Distribution coefficient in membrane/aqueous system, cancer cell membrane model; type: physicochemical; conditions: for LogD: cancer cells membranes, 37 °C
Excerpt: as §1, §2, §3

[5] = set-up: method as in doi:10.1021/jp035260s; conditions: DOPC, pH 7.4, fluorescence anisotropy; ref [47]; cited from earlier work
[6] = Distribution coefficient in membrane/aqueous system, BBB membrane model; type: physicochemical; conditions: BBB endothelial membrane, pH 7.4, derivative spectroscopy
Excerpt: Single-lipid liposomal membrane models composed of DMPC, or lipid mixture liposomal membrane models mimetic of breast cancer cell membrane—DOPC (25%), CHOL (15%), EPC (31.8%), DOPS (17%), DOPE (8%), cardiolipin (2.5%) and SM (0.7%)—mimetic of cell membrane—DOPC (45%), DOPE (20%), DOPS (20%), CHOL (10%), and SM (10%)—and, blood–brain barrier (BBB) membrane constituted by the BPL—phosphocholine (PC) (12.6%), phosphatidyl ethanolamine (PE) (33.1%), PI (4.1%), phosphatidyl serine (PS) (18.5%), and PA (0.8%) were prepared by the classical thin film hydration method. […]
The distribution coefficient (LogD) of CPT between membrane and aqueous buffered solution (pH 5.8 for breast cancer cell membrane model and pH 7.4 for cell membrane model and BBB membrane model) was determined by fluorescence spectroscopy and derivative UV-Vis spectroscopy. […] The samples contained a fixed concentration of CPT (2 × 10^−5M) and increasing concentrations of lipid suspension (0 to 1 × 10^−3 M for absorbance or 3 × 10^−3 M for fluorescence). […] The fluorescence spectra were also measured on a Perkin-Elmer LS-50B spectrofluorimeter. The emission spectra were obtained in 380–480 nm range with λexcitation = 250 nm and the excitation spectra were recorded in 220–400 nm range with λemission = 430 nm. […]

BSA = system: BSA; set-up: method as in Li et al. [17]; conditions: ref Li et al. [17]; cited from earlier work
[7] = set-up: method as in PMID 30869853, PMID 21430952; conditions: DMPC or DMPG, pH 7.4, fluorescence anisotropy; ref [16],[45],[46]; cited from earlier work
[8] = set-up: method as in doi:10.1021/jp035260s; conditions: DOPG, pH 7.4, fluorescence anisotropy; ref [47]; cited from earlier work
C26 colon carcinomas = system: C26 colon carcinomas; set-up: method as in PMID 18384903; conditions: 2.5 mg∙Kg^−1 dose of CPT; ref [79]; cited from earlier work
HSA [9] = biological target: HSA (Homo sapiens, UniProt P02768); experiment: Plasma protein binding by steady-state fluorescence quenching
Experimental: The fluorescence excitation and emission spectra of increasing CPT concentrations (0 to 3 × 10^−4 M) with a constant HSA concentration (2.0 × 10^−6 M) were acquired at 37.0 ± 0.1 °C (Perkin-Elmer LS-50B spectrofluorimeter, Waltham, USA), with excitation at 280 nm and emission at 342 nm, each with 5 nm slits. The following binding isotherm equation can be used to explain the quenching of HSA fluorescence caused by increasing CPT concentrations:(6) % Quenching=ymáx·n/1+Kdiss/[CPT] where ymax is the maximum fluorescence quenching measured, n is the number of binding sites of HSA to CPT, and Kdiss is the dissociation constant (i.e., the inverse of binding constant, Kbind). In addition, the following equation expresses the relationship between the Kdiss value and the Gibbs free energy ( Δ G) of complex binding:(7) ΔGbind=[…] where R is the ideal gas constant and T is the temperature in Kelvin (K).

[10] = set-up: method as in PMID 30654016; conditions: at lower concentrations (5 µM); ref [38]; cited from earlier work
HSA [11] = experiment: Modelling biodistribution using in vitro parameters; set-up: species or system human; conditions: human, plasma proteins (calculated from in vitro Kbind to HSA); from Kbind to HSA, Equation (14); read-out: PPB (converted)
Experimental: (§4) The logD value obtained can be used with in silico descriptors to predict many biodistribution parameters using mathematical methods. As a result, the value of logD was used to predict CPT bioaccumulation (as expressed by the bioaccumulation constant, Kbioaccumulation), which is associated to tissue blood flow (Q) and its volume (V):(9) Kbioaccumulation=Q/V·logD
(§5) To determine if the drug is stored in adipose tissue, the adipose store index (ASI) of CPT was calculated using the following equation [28]:(10) ASI=1.81·logD−logD+0.40
(§6) Furthermore, the obtained distribution coefficient in the BPL model system—logD(BBB)—can be compared to logBB, according to Waterbeem and Kansy. The logarithm of the ratio of drug concentrations in brain and blood is known as logBB, and it represents the drug’s relative affinity variations between plasma proteins and brain tissue:(11) logBB=0.388·logDBBB−0.00618·Vm+1.359 where Vm is the membrane model system’s molar volume, determined from the individual lipid volumes.
(§7) The steady-state volume distribution (VDSS) is one of the most useful PK criteria for describing a drug’s biodistribution. The effect of the PPB, permeability, partitioning, and active transport on the drug’s physiological distribution is translated by this predictor. Based on human clinical PK evidence of a wide set of drugs (670 drugs), the first physiological statistical model of VDSS for predicting the biodistribution of neutral and basic drugs was proposed:(12) VDSS=VP·(1+RE/L)+fu·VP(VE/VP−RE/L)+VR·fu/fut where VP and VE are the plasma and extracellular fluid volumes with corresponding value in human of […]; RE/I represents the ratio of extravascular and intravascular proteins, and is strictly referred to the distribution of albumin, assuming an approximate value of 1.4; VR is defined as the physical volume into which the drug distributes minus the extracellular space (0.380 L∙Kg^−1); fu and fut are, respectively, the unbound drug fraction in plasma and the unbound fraction in tissues.
(§8) The fu values can be obtained by the following equation [33]:(13) fu=1−PPB/100 where PPB can be obtained from the in vitro values of Kbind:(14) PPB=100/1+1/CP·Kbind where CP is the physiological plasma protein concentration (750 μM).
(§9) Lastly, fut can be obtained by the following equation [32]:(15) logfut=−0.0289−0.1739·logD−0.8324·fi(7.4)+1.0400·logfu where fi(7.4) is the fraction of ionized drug at pH 7.4 which has been calculated considering the pH hydrolysis and conversion of CPT from lactone neutral form to the anionic form carboxylate reported.

[12] = as above; set-up: species or system human; conditions: for predicted off-target distribution / bioaccumulation: Equation (9)
Experimental: as §4, §5, §6, §7, §8, §9

[13] = Literature in vivo steady-state volume of distribution; conditions: human, converted from 190 ± 46 L·m^−2 with body surface 1.9 m^2 and body weight 70 kg, ref [71], read-out: in vivo VDSS

Sequence of HSA (Homo sapiens, UniProt P02768) (P02768 25-609): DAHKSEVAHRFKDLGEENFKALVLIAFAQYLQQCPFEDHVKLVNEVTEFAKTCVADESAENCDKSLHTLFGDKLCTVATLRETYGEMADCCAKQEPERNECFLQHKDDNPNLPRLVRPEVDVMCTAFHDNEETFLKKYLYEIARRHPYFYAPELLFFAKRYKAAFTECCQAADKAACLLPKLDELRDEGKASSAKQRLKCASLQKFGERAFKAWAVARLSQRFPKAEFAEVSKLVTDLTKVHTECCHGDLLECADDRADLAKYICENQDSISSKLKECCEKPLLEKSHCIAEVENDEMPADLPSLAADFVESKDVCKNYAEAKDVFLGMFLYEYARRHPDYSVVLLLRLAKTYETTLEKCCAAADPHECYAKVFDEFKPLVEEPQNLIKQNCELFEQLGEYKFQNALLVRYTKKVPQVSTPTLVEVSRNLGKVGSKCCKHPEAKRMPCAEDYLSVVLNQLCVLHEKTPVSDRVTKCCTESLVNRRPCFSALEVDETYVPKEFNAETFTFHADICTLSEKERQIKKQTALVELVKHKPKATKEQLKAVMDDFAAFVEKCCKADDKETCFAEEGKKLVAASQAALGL

With `CC[C@@]1(O)C(=O)OCc2c1cc1n(c2=O)Cc2cc3ccccc3nc2-1` [CPT, Camptothecin] the “average logD” value ([1]; average over normal and cancer cell membrane models and both methods) was 2.89 ± 0.23, the LogD ([1]; pH 7.4, derivative UV-Vis spectroscopy) was 2.78 ± 0.28 ^ns and the LogD ([1]; pH 7.4, fluorescence spectroscopy) was 2.63 ± 0.15 ^ns. The “LogD / logP in octanol:water” value [2] was 1.73 ± 0.08, the “CPT lactone form remaining” value [3] was 5% and the LogD ([4]; pH 5.8, derivative UV-Vis spectroscopy) was 3.14 ± 0.13 ^ns. The LogD ([4]; pH 5.8, fluorescence spectroscopy) was 3.01 ± 0.31 ^ns, the “logD in the cancer cell membrane model” value ([4]; mean of the two methods, pH 5.8) was 3.08 ± 0.22 and the LogD [5] was 1.55 ± 0.05. The LogD [6] was 3.64 ± 0.15, the “binding constant Kbind with BSA” value (BSA) was 37200 M⁻¹ and the LogD [7] was 2.00 ± 0.16. The LogD [8] was 1.97 ± 0.05, the “AUC (blood plasma)” value (C26 colon carcinomas) was 1100 ng·h/mL and the Kd (HSA [9]; HSA 2.0 × 10^−6 M, 37 °C, read-out: dissociation constant Kdiss) was 65.7 µM. For the same molecule, the “binding constant Kbind” value (HSA [9]; HSA, 37 °C) was 1.52 ± 0.26 × 10^4 M^−1, the “number of binding sites n” value (HSA [9]; HSA, 37 °C) was 1 and the “Gibbs free energy ΔGbind” value (HSA [9]; HSA, Equation (7)) was -5.93 ± 0.10 kcal/mol. For the same molecule, the Papp [10] was 30 ×10⁻⁶ cm/s, the fraction unbound (HSA [11]) was 0.0805 and the “adipose storage index (ASI)” value ([12]; Equation (10), from logD) was 2.53 ± 0.12. The “LogBB (brain accumulation index)” value ([12]; Equation (11), from logD in BBB endothelial membrane) was 2.76 ± 0.06, the “predicted off-target distribution / bioaccumulation” value ([12]; adrenal glands, from logD in normal cell membrane model) was 61.44% and the “free drug available for distribution to the tissues” value ([12]; from PPB) was 8.05%. The “predicted off-target distribution / bioaccumulation” value ([12]; heart) was 3.07%, the fraction unbound ([12]; human, plasma (calculated from PPB), Equation (13), read-out: unbound fraction in plasma fu) was 0.081 and the fraction unbound ([12]; human, tissues (predicted), Equation (15), read-out: unbound fraction in tissues fut) was 0.0054. For the same molecule, the Vd ([12]; human, Equation (12), from in vitro logD and PPB, read-out: VDSS (steady-state volume of distribution)) was 5.75 ± 0.932 L/kg, the “predicted off-target distribution / bioaccumulation” value ([12]; kidneys) was 3.07% and the “predicted off-target distribution / bioaccumulation” value ([12]; thyroid) was 30.72%. The Vd [13] was 5.16 ± 1.25 L/kg.
